Data reported in patent publication US12622899B2 (PureTech LYT 100, Inc., priority 2018, dated 2026).
“And” between values parts separate entries of the source, which are not always exact repeats. Equal values may be shown once. Read-outs that look alike come from different tables or passages of the source.

Tests used:
[1] = test system: rat BLM induced lung fibrosis model; experiment: Rat bleomycin induced lung fibrosis model, Phase II (efficacy); conditions: bleomycin rats, LYT-100 400 mg/kg QD / nintedanib 60 mg/kg BID
Experimental: For Groups 4, 5, 6, and 7, bleomycin and vehicle dosing were conducted as indicated in Table 28 (0.45 mg/kg, at 1696 IU/mg of Bleomycin or saline on Day 1, 2, 3, 6 and 7).

[2] = test system: patients with IPF; conditions: cited from earlier work; for patients with IPF progression (decline ≥10% in % FVC or death over 52 weeks): Nathan 2018
[3] = clinical; conditions: both sexes, human, in vivo, 550 mg
Experimental: Over-encapsulation was utilized to maintain study blind. […] Approximately 50 older healthy female and male adult subjects (1:1 ratio) were randomized into 1 of 2 cohorts:Cohort 1 or Cohort 2, N=˜25 subjects per cohort.
There was a single AM fasting dose on Day 4 for both drugs. There was a 6-day wash-out period between drug cross-over.
Subjects were discharged on Day 4 following successful completion of all assessments and at the Investigator's discretion.
Subjects were then administered a single dose of their randomized treatment on the morning of Day 14 following an overnight fast of at least 8 hours. Subjects were discharged on Day 14 following successful completion of all assessments and at the Investigator's discretion.
An evening snack was served ≥3 hours following evening study medication administration. On Day 4 (Treatment Period 1) and Day 14 (Treatment Period 2), subjects were administered their assigned study drug once in the morning following an overnight fast of at least 8 hours (with approximately 240 mL of non-carbonated water). No additional fluids were allowed during the 1 hour pre- and post-dose.
Blood samples for PK were collected for Cohorts 1 and 2 at specified times during both periods, as follows: • Days 1 & 11:0 (pre-morning dose) • Days 2 & 12: no sampling. • Days 3 & 13:0 (pre-morning dose), and 1, 2, 3, 4, 6 (pre-mid-day dose), 7, 8, 9, 10, 12 (pre-evening dose), 13, 14, 15, 16, and 17 hours post-morning dose • Days 4 & 14:0 (pre-morning dose), and 1, 2, 3, 4, 6 (post-dose),

[4] = test system: patients with IPF; conditions: cited from earlier work
[5] = test system: patients with Idiopathic Pulmonary Fibrosis (IPF); experiment: IPF trial Part A: clinical laboratory parameters, liver; format: in vivo, human; conditions: 801 mg TID (N = 63), N1 62
[6] = study PIPF-005, 801 mg three times daily (2403 mg/day), healthy older subjects; cited from earlier work
[7] = target: T1, CYP2D6 (Homo sapiens, UniProt P10635); experiment: In vitro stability with recombinant human CYP2D6; format: in vitro ADME; conditions: recombinant human isozyme; read-out: t1/2 following incubation with CYP2D6 (converted)
T1 construct: host or cells: heterologous cell systems (not specified)
T1 sequence (P10635 whole entry): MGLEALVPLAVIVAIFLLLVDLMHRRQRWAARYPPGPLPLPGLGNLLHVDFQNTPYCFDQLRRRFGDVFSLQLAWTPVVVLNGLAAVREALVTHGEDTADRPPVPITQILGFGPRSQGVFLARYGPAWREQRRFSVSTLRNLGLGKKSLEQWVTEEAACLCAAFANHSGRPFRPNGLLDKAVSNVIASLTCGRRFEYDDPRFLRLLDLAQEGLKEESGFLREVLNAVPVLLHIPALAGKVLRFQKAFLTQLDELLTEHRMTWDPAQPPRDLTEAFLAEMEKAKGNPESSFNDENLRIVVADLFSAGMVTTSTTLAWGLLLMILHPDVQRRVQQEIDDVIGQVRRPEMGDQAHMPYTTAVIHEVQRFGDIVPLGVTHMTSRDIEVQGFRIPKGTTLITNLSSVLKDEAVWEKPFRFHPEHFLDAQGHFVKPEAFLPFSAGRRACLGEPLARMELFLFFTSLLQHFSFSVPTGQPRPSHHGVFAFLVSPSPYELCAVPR
Experimental: (§1) The half-life (t½) of each test article was determined.

[8] = target: T2, CYP2C19 (Homo sapiens, UniProt P33261); experiment: In vitro stability with recombinant human CYP2C19; format: in vitro ADME; conditions: recombinant human isozyme; read-out: t1/2 following incubation with CYP2C19 (converted)
T2 construct: host or cells: heterologous cell systems (not specified)
T2 sequence (P33261 whole entry): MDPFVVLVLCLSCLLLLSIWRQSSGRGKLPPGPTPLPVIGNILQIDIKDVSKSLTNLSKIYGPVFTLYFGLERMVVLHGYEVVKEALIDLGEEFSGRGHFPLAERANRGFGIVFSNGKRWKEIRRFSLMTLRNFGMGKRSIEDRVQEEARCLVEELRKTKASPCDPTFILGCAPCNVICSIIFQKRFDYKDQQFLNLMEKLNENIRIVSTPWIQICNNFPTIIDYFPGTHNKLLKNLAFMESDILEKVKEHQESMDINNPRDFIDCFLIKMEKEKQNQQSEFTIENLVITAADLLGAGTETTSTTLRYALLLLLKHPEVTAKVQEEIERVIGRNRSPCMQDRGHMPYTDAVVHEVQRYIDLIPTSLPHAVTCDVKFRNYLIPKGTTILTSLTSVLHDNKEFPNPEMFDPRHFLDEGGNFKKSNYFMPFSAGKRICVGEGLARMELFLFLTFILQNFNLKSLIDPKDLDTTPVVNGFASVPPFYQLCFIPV
Experimental: as §1

[9] = test system: patients with Idiopathic Pulmonary Fibrosis (IPF); experiment: IPF trial Part A: safety and tolerability (TEAEs, AESI, dose modifications, discontinuations); format: in vivo; conditions: 801 mg TID (N = 63)
Experimental: The primary objective was to determine the dose(s) to carry into Phase 3. […] Patients were randomized to one of the four treatments in a 1:1:1:1 ratio and stratified based on prior exposure to nintedanib (<6 months) versus nintedanib-naïve patients. Patients who completed the Double-blind Treatment Period (Part A) were offered participation in the Long-term Extension (Part B). […] For patients who participated in Part B, the follow-up was conducted at the end of Part B. A graphical illustration of an embodiment of the trial design is provided as FIG. 24B.
Safety endpoints included: Adverse events, concomitant medications, clinical laboratory findings (chemistry, hematology, urinalysis), physical examinations, ECGs, and vital signs. These will be summarized descriptively, where appropriate.
Tolerability endpoints included: Frequency of dose modifications (reductions and interruptions), time to first dose modification, (reduction or interruption), duration of adverse events of special interest, time to treatment discontinuation due to an adverse event of special interest and patient reported assessment of IPF symptoms, side-effects, severity, change and satisfaction.
In this study, AEs are reported for all patients from the time of consent until the completion of the Follow-up visit. AEs reported prior to the first dose are denoted as pre-treatment. SAEs are reported for all patients (randomized or not) from the time of consent. AEs reported from the time of consent to confinement on Day 0 were recorded as pre-treatment AEs.
Treatment emergent adverse events (TEAEs) are defined as an AE that occurs following first dose of study medication and were evaluated from the first administration of study drug on Day 1 until the Follow-up visit. […]
This study evaluated in particular the tolerability based on prioritized gastrointestinal adverse events (GI AEs). […]

[10] = target: T3, CYP1A2 (Homo sapiens, UniProt P05177); experiment: In vitro stability with recombinant human CYP1A2; format: in vitro ADME; conditions: recombinant human isozyme; read-out: t1/2 following incubation with CYP1A2 (converted)
T3 construct: host or cells: heterologous cell systems (not specified)
T3 sequence (P05177 1-516): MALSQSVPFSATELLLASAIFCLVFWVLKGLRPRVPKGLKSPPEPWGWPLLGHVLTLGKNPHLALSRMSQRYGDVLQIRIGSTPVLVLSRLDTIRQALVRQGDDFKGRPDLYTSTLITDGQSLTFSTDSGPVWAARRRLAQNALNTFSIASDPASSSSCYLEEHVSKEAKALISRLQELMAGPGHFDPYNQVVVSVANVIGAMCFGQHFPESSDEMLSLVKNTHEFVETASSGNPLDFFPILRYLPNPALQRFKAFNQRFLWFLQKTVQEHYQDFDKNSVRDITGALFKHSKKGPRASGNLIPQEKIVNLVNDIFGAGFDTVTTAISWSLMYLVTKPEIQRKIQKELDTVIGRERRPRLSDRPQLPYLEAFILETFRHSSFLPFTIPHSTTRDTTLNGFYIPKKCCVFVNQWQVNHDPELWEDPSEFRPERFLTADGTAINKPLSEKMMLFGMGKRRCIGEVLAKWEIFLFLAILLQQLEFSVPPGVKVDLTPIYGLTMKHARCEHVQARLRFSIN
Experimental: as §1

[11] = test system: older, healthy subjects; experiment: Crossover study Part 2: safety and tolerability (TEAEs), fed and fasted; format: in vivo, human
Source text: Over-encapsulation was utilized to maintain study blind. […] Approximately 50 older healthy female and male adult subjects (1:1 ratio) were randomized into 1 of 2 cohorts:Cohort 1 or Cohort 2, N=˜25 subjects per cohort. Subjects in each cohort were randomized to treatment sequence as follows: • Sequence A: Pirfenidone to LYT-100 • Sequence B: LYT-100 to pirfenidone

[12] = pooled phase 3 (Noble 2016), one year, vs placebo
[13] = observational study (Cottin 2018)

COC(=O)c1ccc2c(c1)NC(=O)/C2=C(\Nc1ccc(N(C)C(=O)CN2CCN(C)CC2)cc1)c1ccccc1 [Nintedanib, nintedanib, reference compound]
hydroxyproline content (μg per mg of wet lung) vs bleomycin/vehicle ([1]; Day 8-27): reduced hydroxyproline content | lung fibrosis scores (histopathology) vs bleomycin/vehicle ([1]; Day 8-27): did not affect the fibrosis scores | lung sections with fibrosis Score 1 ([1]; Day 8-27): 37% | lung sections with fibrosis Score 2 ([1]; Day 8-27): 33% | lung weight ratio (% of body weight) vs bleomycin/vehicle ([1]; Day 8-27): trend for lower lung weight ratios | mean lung weight vs bleomycin/vehicle ([1]; Day 8-27): reduced lung weight | median lung fibrosis scores vs bleomycin/vehicle ([1]; Day 8-27): reduced median fibrosis scores | total left lung hydroxyproline (μg per left lung) vs bleomycin/vehicle ([1]; Day 8-27): lower levels of total hydroxyproline | body weight gain ([1]; oral gavage Day 8-27): showed modest improvement after Day 8 and the rate of body weight gain remained slower compared with the other groups

Cc1ccc(=O)n(-c2ccccc2)c1 [Pirfenidone, pirfenidone, reference compound]
patients with IPF progression (decline ≥10% in % FVC or death over 52 weeks) ([2]; <90% dose intensity): 21.6% | patients with IPF progression (decline ≥10% in % FVC or death over 52 weeks) ([2]; >90% dose intensity): 11.6% | rate of permanent dose reductions ([2]; pooled phase 3 (Nathan 2018)): 31.5% | rate of treatment discontinuation ([2]; pooled phase 3 (Nathan 2018)): 15.2% | reduction of risk of death or disease progression ([2]; pooled phase 3 (Noble 2016), 1 year, vs placebo): 38% | FVC change, absolute difference vs placebo ([2]; pooled phase 3 (Noble 2016), 1 year): 148 mL | increase in proportion of patients with no decline in FVC % predicted [2, 12]: 59.3% | reduction in proportion of patients with ≥10% decline in FVC % predicted or death [2, 12]: 43.8% | mean change from baseline to 1 year in FVC ([2]; pooled phase 3 (Noble 2016), pirfenidone group): -216 mL | AUC(0-t) ([3]; AUC0-24, parent): 44100 ng·h/mL | Cmax ([3]; Cmax, parent): 12700 ng/mL | discontinuations due to adverse events associated with pirfenidone [4, 13]: 27.9% | patients on a lower dose by two years [4, 13]: 13.8% | patients who had discontinued treatment by two years [4, 13]: 64.9% | patients still on full dose (2,403 mg/day) by two years ([4]; observational study of 1,009 IPF patients (Cottin 2018), FIG. 1B): 21.3% and 21% | Alanine Aminotransferase (U/L) at Worst Post-Baseline, 3-5 ULN [5]: 1 (1.6) n (%) | Alanine Aminotransferase (U/L) at Worst Post-Baseline, 5-8 ULN [5]: 0 n (%) | Alanine Aminotransferase (U/L) at Worst Post-Baseline, >8 ULN [5]: 0 n (%) | Alanine Aminotransferase (U/L) at Worst Post-Baseline, Total (>3 ULN) [5]: 1 (1.6) n (%) | Alanine Aminotransferase or Aspartate Aminotransferase (U/L) at Worst Post-Baseline, 3-5 ULN [5]: 1 (1.6) n (%) | Alanine Aminotransferase or Aspartate Aminotransferase (U/L) at Worst Post-Baseline, 5-8 ULN [5]: 0 n (%) | Alanine Aminotransferase or Aspartate Aminotransferase (U/L) at Worst Post-Baseline, >8 ULN [5]: 0 n (%) | Alanine Aminotransferase or Aspartate Aminotransferase (U/L) at Worst Post-Baseline, Total (>3 ULN) [5]: 1 (1.6) n (%) | Aspartate Aminotransferase (U/L) at Worst Post-Baseline, 3-5 ULN [5]: 0 n (%) | Aspartate Aminotransferase (U/L) at Worst Post-Baseline, 5-8 ULN [5]: 0 n (%) | Aspartate Aminotransferase (U/L) at Worst Post-Baseline, >8 ULN [5]: 0 n (%) | Aspartate Aminotransferase (U/L) at Worst Post-Baseline, Total (>3 ULN) [5]: 0 n (%) | Cmax [6]: 11.85 µg/mL | half-life [7]: 138 min | half-life [8]: 128 min | Discontinued, Primary Reason: Death [9]: 0 n (%) | half-life [10]: 191 min | deaths or serious AEs ([11]; Part 2): No deaths or serious AEs | TEAEs leading to study discontinuation, subjects ([11]; in vivo): one
